The record followed here is patent publication US12358859B2, “Series of compounds for treatment of skin diseases and other conditions” (Unigen, Inc., priority 2018, dated 2025).

Values after ≈ are worked out from the molar mass of the structure shown. Read-outs that look alike come from different tables or passages of the source. A value given as a limit tells only on which side of the number the result lay.

As a reminder, the IC50 is the concentration needed to halve the response being measured.

For series [1], the system named is Propionibacterium acnes (ATCC11827). Description: P-acne MIC/MBC test. It is filed as cell-based. As to conditions: for MIC: lowest level that inhibits growth, turbidity, 1 day. The method, then: The anti-microbial activity of the tested compounds were evaluated using published methods (Modugno e. al. (1994) Antimicrobial agents and Chemotherapy 38: 2362-2368; […] et. al. (1973) Antimicrobial agents and Chemotherapy 3: 40-48. Propionibacterium acnes (ATCC11827) was cultured for 20 hours at 37° C. in Reinforced Clostridal medium. The test article and positive control were dissolved in 1% DMSO with an incubation volume of 1 mL. The time of assessment was 1 day. Measurement of turbidity was used as the method of quantification. The compounds were tested in duplicate at concentrations of 250 ug/mL, 125 ug/mL, 62 ug/mL, 31 ug/mL, 16 ug/mL, 8 ug/mL, 4 ug/mL, 2 ug/mL relative to positive control ampicillin at 0.1 ug/mL.

Series [2] addresses 5-lipoxygenase from potato. Briefly: Lipoxygenase Inhibition Assay. It is filed as biochemical. As to conditions: read-out: Anti-inflammatory (IC50) 5-LOX. Here is the method: One of the most important pathway involved in the inflammatory response is produced by non-heme, ion-containing lipoxygenases (5-LOX, 12-LOX and 15-LOX) which catalyze the oxidation of fatty acids such as AA to produce the hydoperoxides 5-, 12- and 15-HEPTE, which are then converted to leukotrienes. A Lipoxygenase Inhibition Assay was carried out using commercial kit from Cayman Chemical (cat #760700, 5-lipoxygenase from potato, cat #60400). The test article and positive control were dissolved in 1% DMSO. 90 μL of diluted potato lipoxygenase enzyme and 10 μL inhibitor were added to a flat-bottom clear 96-well microplate. The plate was pre-incubated for five minutes at room temperature. The reaction was initiated by the addition of 10 μL linoleic acid substrate. The plate was then placed on a shaker for 10 minutes at room temperature. 100 μL Chromogen solution was added to each well and the plate was shaken again for five minutes. The absorbance was read at 492 nm using a TECAN Genios plate reader. The inhibitor concentration vs. % of inhibition was plotted and the IC50 determined.

Series [3] addresses T1, COX-1 (Ovis aries, UniProt P05979).
T1 construct: purchased Cayman Chemical 701050
T1 sequence (P05979 25-600): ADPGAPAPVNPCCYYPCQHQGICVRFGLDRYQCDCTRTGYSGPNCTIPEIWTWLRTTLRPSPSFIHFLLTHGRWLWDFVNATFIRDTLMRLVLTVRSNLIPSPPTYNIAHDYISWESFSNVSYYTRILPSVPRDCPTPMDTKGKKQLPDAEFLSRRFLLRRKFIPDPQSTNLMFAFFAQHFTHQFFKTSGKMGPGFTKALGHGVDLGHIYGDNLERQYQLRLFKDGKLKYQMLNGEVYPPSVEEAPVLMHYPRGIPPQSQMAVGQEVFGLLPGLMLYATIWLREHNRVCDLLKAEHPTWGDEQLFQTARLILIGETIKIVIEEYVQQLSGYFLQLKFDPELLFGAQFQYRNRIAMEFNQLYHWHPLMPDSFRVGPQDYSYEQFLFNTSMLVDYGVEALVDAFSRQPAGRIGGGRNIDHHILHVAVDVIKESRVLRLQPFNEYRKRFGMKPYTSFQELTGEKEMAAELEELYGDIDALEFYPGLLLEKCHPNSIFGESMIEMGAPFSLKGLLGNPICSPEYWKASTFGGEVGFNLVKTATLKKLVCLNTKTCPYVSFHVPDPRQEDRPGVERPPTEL
Description: COX-1 enzymatic inhibition assay. Type of series: biochemical. The conditions noted are these: for IC50: read-out: Anti-inflammatory (IC50) COX-1. Here is the method:
In order to screen for compounds that inhibited COX-1 and Cox-2 activity, enzymatic inhibition assay kits were purchased from Cayman Chemical (cat #701050). Briefly, the compound being examined was treated against a fixed amount of COX-1 and COX-2 enzymes. A cleavable, peroxide chromophore was included in the assay to visualize the peroxidase activity of each enzyme in presence of arachidonic acid as […]. Typically, assays were performed in 96-well format. Each inhibitor, taken from a 1 M stock solution in 100% DMSO, was tested in duplicate at room temperature using the following range of concentrations: 1.9, 3.9, 7.8, 15.6, 31.2, 62.5, 125, 250, 500, and 1000 μM. To each well, 150 μL of Assay Buffer was added along with 10 μL of Hemin, 10 μL of inhibitor diluted in DMSO and 10 μL of either COX-1 or COX-2 enzyme. The compounds were incubated for 5 minutes at room temperature, followed by the addition of 20 μL of Colormietric Substrate solution and 20 μL of arachidonic acid solution to initiate the reaction. The plate was mixed and incubated for 2 minutes before reading the absorbance at 590 nm. The inhibitor concentration vs. % of inhibition was plotted and the IC50 determined.

Series [4] deals with murine melanoma cells B16-F1. Briefly: Cell viability, tetrazolium reduction assay. It is filed as cell-based. The method, then:
All test compounds were initially dissolved in 100% DMSO at a concentration of 400 mM. Then, 6 μL of 400 mM test compounds were added to 1.2 mL of the cell growth media giving a final concentration of 2 mM for the test compound and concentration of 0.5% for DMSO. The compounds were centrifuged for 1 h at 20,000×g. Supernatants (1 mL) were collected and filtered through sterile 0.2 μm filters. The compounds were serially diluted in two-fold increments in the sterile cell growth media supplemented with 0.5% DMSO, thus keeping the concentration of DMSO constant for all samples. These serially diluted compounds were subsequently used as two-fold concentrated stock solutions in the melanin production and cell viability assays. Equal volumes of 2× compounds were mixed with media containing 2 nM α-MSH to give a final concentration of 1 nM α-MSH, 0.5% DMSO, and 1× concentration of test compounds.
Viability of cells was measured using standard tetrazolium reduction assay based on redox potential of live cells. Cells were seeded in a clear-bottom 96-well plate in RPMI 1640 media with Glutamax (Fisher Scientific, cat #61870036) at a density of 5,000 cells/well. Cells were treated with test compounds dissolved in 100 μL RPMI 1640 media and incubated for 48 hours at 37° C. in a humidified atmosphere of 95% air and 5% CO2.
After incubation, 20 μL of Aqueous One Solution were added to each well and the plate was returned to the incubator for 30 minutes. Conversion of tetrazolium was monitored by measuring absorbance of cell wells at 492 nm using a TECAN Genios plate reader.
More than 90% percent of the melanin produced by cultured melanoma cells is found in extra-cellular media. Therefore, at the end of the experiment melanin-containing media was collected and relative amounts of melanin were determined by absorption at 492 nm. Viability of cells was determined by a commonly used colorimetric procedure that is based on conversion of the tetrazolium compounds to colored formazan products (using Promega's CellTiter96 AqueousOne assay). Dehydrogenase enzymes in metabolically active cells accomplish this conversion, and the amount of formazan product is directly proportional to the number of living cells in culture. Mean (n=2) absorption of wells containing no cells was subtracted as blanks. The results were computed as percent of wells that contained the cells but no test compounds.

[5] abbreviates: Cutibacterium acnes, ATCC11827, 24 h, read-out: MIC.
[6] abbreviates: Cutibacterium acnes, ATCC11827, lowest concentration required to kill the bacterium, read-out: MBC.

In the case of `CC(C)=CCCC(C)=Cc1ccc(O)cc1` (mixture of isomers) [Compound 1, (E/Z)-4-(2,6-dimethylhepta-1,5-dienyl)phenol], the MIC was < 3.9 µg/mL in series [1] (setting [5]) and <3.9 ppm in series [1]. Besides, the MBC in series [1] (setting [6]) is < 3.9 µg/mL; in series [1] (lowest concentration required to kill the bacterium) it was <3.9 ppm. The figures for the IC50 in series [2] and in series [3] were 90 µM and 122 µM, respectively. In addition, the “CELL VIABILITY” value in series [4] (48 hours, Tables 1-3) is 269 µM. Also, the “LD50, cell viability” value in series [4] (mouse, 48 h) worked out at 269 µM.
For the compound `CC(C)=CCC/C(C)=C/c1cc(O)cc(O)c1` [Compound 4, (E/Z)-5-(2,6-dimethylhepta-1,5-dienyl)benzene-1,3-diol], in series [1] (setting [5]), the MIC was < 3.9 µg/mL. For the same compound, in series [1] (setting [6]), the MBC was < 3.9 µg/mL. Besides, the IC50 in series [2] is 317 µM; in series [3], 64 µM. In series [4] (mouse, 48 h), the “CELL VIABILITY” value stood at 127 µM.
As for `CC(C)=CCCC(C)/C=C/c1ccc(O)cc1` (stereo not shown) [Compound 5, (E)-4-(3,7-dimethylocta-1,6-dienyl)phenol], the MIC in series [1] (setting [5]) is < 3.9 µg/mL. Further, the IC50 in series [2] worked out at 50 µM. Besides, the “Anti-inflammatory (IC50) COX-1” value in series [3] is given as “No Inhibition”. For the same compound, in series [4] (mouse, 48 h), the “CELL VIABILITY” value worked out at 50 µM.
With `CC(C)=CCCC(C)/C=C/c1ccc(O)cc1O` (stereo not shown) [Compound 6, (E)-4-(3,7-dimethylocta-1,6-dienyl) benzene-1,3-diol], the MIC in series [1] (setting [5]) was found to be 3.9 µg/mL (≈ 15.8 µM). Moreover, the MBC in series [1] (setting [6]) is 3.9 to 31.3 µg/mL (≈ 15.8 to 127 µM). For the same compound, the concentration for half-maximal inhibition (IC50) in series [2] is 307 µM; in series [3], 74 µM. In series [4] (48 hours, Tables 1-3), the “CELL VIABILITY” value worked out at 233 µM. The “LD50, cell viability” value in series [4] (mouse, 48 h) worked out at 233 µM.
On to `CC(C)=CCCC(C)/C=C/c1cc(O)cc(O)c1` (stereo not shown) [Compound 7, (E)-5-(3,7-dimethylocta-1,6-dienyl) benzene-1,3-diol], for which, in series [1] (setting [5]), the MIC stood at 7.8 µg/mL (≈ 31.7 µM). For the same compound, the MBC in series [1] (setting [6]) is 7.8 to 31.3 µg/mL (≈ 31.7 to 127 µM). Moreover, the IC50 in series [2] came out at 143 µM; in series [3], 25 µM. For the same compound, the “CELL VIABILITY” value in series [4] (48 hours, Tables 1-3) was 152 µM. Besides, in series [4] (mouse, 48 h), the “LD50, cell viability” value is 152 µM.
Turning to `CC(C)=CCCC(C)C/C=C\c1cc(O)cc(O)c1` (stereo not shown) [Compound 15, (Z)-5-(4,8-dimethylnona-1,7-dienyl) benzene-1,3-diol], the MIC in series [1] (setting [5]) was < 3.9 µg/mL. For the same compound, the MBC in series [1] (setting [6]) was < 3.9 µg/mL. In addition, the IC50 in series [2] is 90 µM; in series [3], 122 µM. Further, the “CELL VIABILITY” value in series [4] (mouse, 48 h) was 269 µM.
